Results from patent US4237141A, “Derivatives of α-methyl-β-aminopropiophenone and use thereof” (priority 1977, dated 1980).
pEC50: −log10 of the molar value.

Key:
[1] = system: guinea-pig isolated tracheal smooth muscles; experiment: Relaxant action on guinea-pig isolated tracheal chain contracted by histamine; settings: for pEC50: Cavia porcellus, contracted by 10^-4 M histamine, read-out: A: 50% effective amount for the guinea-pig isolated tracheal smooth muscles (50% relaxation); for B/A: selectivity to tracheal smooth muscles: based on reference B/A value 1 for isoproterenol, B from canine femoral artery
Text: (§1) Reference will now be made to pharmacological effects of the compounds according to the present invention.
(§2) (1) Relaxant action on the guinea-pig isolated tracheal smooth muscles and the vasodilating action on the canine anesthetized femoral arterial preparation were employed to compare the pharmacological effects of each of the compounds.

[2] = system: canine femoral arterial preparation; experiment: Vasodilating action in the canine anesthetized femoral arterial preparation (close arterial injection); assay type: in vivo
Text: as §1, §2

[3] = system: β-adrenoceptor; experiment: Relaxant action on guinea-pig isolated trachea in the presence of propranolol (β-adrenoceptor involvement); settings: histamine 10^-4 M; propranolol 2.5×10^-5 M; FIGS. 1-4
Text: as §2
Histamine (10^-4 M in the bath medium) was applied to the guinea-pig isolated tracheal preparation to contract the muscles, and the effect of the above compounds to inhibit the contraction (%) was plotted along the ordinate on each of the points for concentration which were connected by a solid line into a curve. Then, the dose-response curve for the compound in the presence of propranolol (2.5×10^-5 M) was obtained and plotted in a dotted line.

[4] = system: canine blood-perfused tracheal preparation; experiment: Canine blood-perfused tracheal preparation in situ: intraluminal pressure decrease and perfused-blood flow increase; assay type: in vivo; settings: for D/C × 10: selectivity: based on reference D/C value 1 for isoproterenol; for C: dose required for 20 cm H2O decrease in the tracheal intraluminal pressure (bronchodilator action) / D: dose required for 5 ml/min increase in the perfused-blood flow (vasodilator action): canine blood-perfused tracheal preparation in situ
Protocol: as §1
The bronchodilator action was represented by a dose (C), μg, of a compound required for decreasing the intraluminal pressure by 20 cm H2 O and the vasodilator action was represented by a dose (D), μg, of the compound required for increasing the perfused-blood flow by 5 ml/min.

[5] = Acute toxicity, intraperitoneal injection in mice; settings: mouse, in vivo, ip; intraperitoneal injection to mice; read-out: F: Approx. LD50 value
Protocol: Another experiment was also conducted using mice as an index for the acute toxicity to the whole body.
Approx. LD50 value on intraperitoneal injection for mice was determined.

SMILES | pEC50 [1] | B/A: selectivity to tracheal smooth muscles [1] | B: dose required for 30 ml/min increase in the perfused-blood flow (vasodilator action) [2] | difference between dose-response curves without and with propranolol (inhibition of histamine contraction) [3] | D/C × 10: selectivity [4] | C: dose required for 20 cm H2O decrease in the tracheal intraluminal pressure (bronchodilator action) [4] | D: dose required for 5 ml/min increase in the perfused-blood flow (vasodilator action) [4] | LD50 [5]
CCCC[S+]([O-])c1ccc(C(=O)C(C)CN2CCCCC2)cc1 (centres unmarked) [Compound 28, 1-(4-butylsulfinylphenyl)-3-piperidino-2-methylpropanone-1] | 4.22 | 8 | 460 µg |  |  |  |  | 
CSc1ccc(C(=O)C(C)CN2CCCC2)cc1 (centres unmarked) [Compound 50] | 5.22 | 7 | 43 µg |  |  |  |  | 
CC(CN1CCCCC1)C(=O)c1ccc(S(C)(=O)=O)cc1 (centres unmarked) [Compound 16, 1-(4-methylsulfonylphenyl)-3-piperidino-2-methylpropanone-1] | 4.22 | 12 | 750 µg | no substantial difference |  |  |  | 
CSc1ccc(C(=O)C(C)CN2CCN(C)CC2)cc1 (centres unmarked) [Compound 53] | 3.70 | 2 | 430 µg |  |  |  |  | 
CCSc1ccc(C(=O)C(C)CN2CCCCC2)cc1 (centres unmarked) [Compound 29, 1-(4-ethylthiophenyl)-3-piperidino-2-methylpropanone-1] | 5.70 | 90 | 180 µg | no substantial difference | 7 | 109 µg | 77 µg | 
CSc1ccc(C(=O)C(C)CN2CCCCC2)cc1 (centres unmarked) [Compound 51, 1-(4-methylthiophenyl)-3-piperidino-2-methylpropanone-1] | 5.22 | 40 | 240 µg | no substantial difference | 8 | 62.5 µg | 50 µg | 
CC(C)(C)NCC(O)c1cc(O)cc(O)c1 (centres unmarked) [terbutaline] |  |  |  |  | 4 | 0.5 µg | 0.2 µg | 
CCSc1ccc(C(=O)C(C)CN2CCOCC2)cc1 (centres unmarked) [Compound 25, 1-(4-ethylthiophenyl)-3-morpholino-2-methylpropanone-1] | 4.00 | 1 | 100 µg |  |  |  |  | 200 mg/kg
CCSc1ccc(C(=O)C(C)CN2CCCC2)cc1 (centres unmarked) [Compound 37] | 4.52 | 6 | 175 µg |  |  |  |  | 200 mg/kg
CCCCS(=O)(=O)c1ccc(C(=O)C(C)CN2CCCCC2)cc1 (centres unmarked) [Compound 36, 1-(4-butylsulfonylphenyl)-3-piperidino-2-methylpropanone-1] | 4.70 | 18 | 360 µg |  | 3 | 333 µg | 100 µg | 
CC[S+]([O-])c1ccc(C(=O)C(C)CN2CCCCC2)cc1 (centres unmarked) [Compound 10] | 3.70 | 4 | 700 µg |  |  |  |  | 
CC(C)NCC(O)c1ccc(O)c(O)c1 (centres unmarked) [isoproterenol, reference compound] | 8.30 |  | 0.0053 µg |  |  | 0.1 µg | 0.01 µg | 
COc1cc(CC2NCCc3cc(O)c(O)cc32)cc(OC)c1OC (centres unmarked) [trimetoquinol] |  |  |  |  | 2.5 | 0.2 µg | 0.05 µg | 
CC(CN1CCCCC1)C(=O)c1ccc([S+](C)[O-])cc1 (centres unmarked) [Compound 4, 1-(4-methylsulfinylphenyl)-3-piperidino-2-methylpropanone-1] | 3.52 | 3 | 800 µg |  |  |  |  | 
CCS(=O)(=O)c1ccc(C(=O)C(C)CN2CCCCC2)cc1 (centres unmarked) [Compound 22, 1-(4-ethylsulfonylphenyl)-3-piperidino-2-methylpropanone-1] | 4.22 | 9 | 580 µg |  |  |  |  | 
CC(C)(C)NCC(O)c1ccc(O)c(CO)c1 (centres unmarked) [salbutamol] |  |  |  |  | 2 | 2 µg | 0.4 µg | 
CCSc1ccc(C(=O)C(C)CN(C)C)cc1 (centres unmarked) [Compound 54] | 4.22 | 6 | 350 µg |  |  |  |  | 200 mg/kg
CCSc1ccc(C(=O)C(C)CN(CC)CC)cc1 (centres unmarked) [Compound 55] | 4.22 | 5 | 270 µg |  |  |  |  | 200 mg/kg
CC(CN1CCCCC1)C(=O)c1ccc(S(=O)(=O)c2ccccc2)cc1 (centres unmarked) [Compound 42, 1-(4-phenylsulfonylphenyl)-3-piperidino-2-methylpropanone-1] | 4.70 | 9 | 175 µg |  |  |  |  | 
CSc1ccc(C(=O)C(C)CN(C)C)cc1 (centres unmarked) [Compound 48, 1-(4-methylthiophenyl)-3-dimethylamino-2-methylpropanone-1] | 5.22 | 17 | 100 µg |  |  |  |  | 
